Results published in US3931262A, “Hydrophilic and difficultly volatile biocidal triorganotin compounds” (priority 1972, dated 1976).

Key:
[1] = test system: Stachybotrys atra CBS 32465; assay: Microbiological test; type: cell-based
Source text: (§1) In the test for microbiocidal activity the compounds listed hereinbelow yielded the values indicated in the following Table: No. Compound __________________________________________________________________________ 1 (n--C4 H9)3 Sn--S--CH2 --CH2 --COO.(CH 2 --CH2 --O--n H(n~9) 2 (C6 H5)3 Sn--S--(CH2)3 --SO3.Na CH3 .vertline. 3 --Sn--S--CH2 --CH2 --COO--(CH2 --CH2 --O)n.H(n ~9) .vertline. CH3 4 (n--C4 H9)3 Sn--S--CH2 --COO.H.N(CH2 CH2 OH)3 5 (n--C4 H9)3 Sn--S--(CH2)2 --COO.H.N(CH2 CH2 OH)3 6 (n--C4 H9)3 Sn--S--CH2 --CO.N(CH2 CH2 OH)2 __________________________________________________________________________

[2] = test system: Streptococcus faecalis NCTC 8619; assay: Microbiological test; type: cell-based
Source text: as §1

Candida albicans CBS = assay: Microbiological test; type: cell-based
Source text: as §1

Hefe rot DAP = assay: Microbiological test; type: cell-based
Source text: as §1

[3] = test system: Alternaria tenuis CBS 10426; assay: Microbiological test; type: cell-based
Source text: as §1

Pilz schwarzlich DAP = assay: Microbiological test; type: cell-based
Source text: as §1

[4] = test system: Escherichia coli NCTC 8195; assay: Microbiological test; type: cell-based
Source text: as §1

[5] = test system: Escherichia coli RP 45410; assay: Microbiological test; type: cell-based
Source text: as §1

Paecilomyces varioti CBS = assay: Microbiological test; type: cell-based
Source text: as §1

[6] = test system: Penicillium expansum SMC 36; assay: Microbiological test; type: cell-based
Source text: as §1

Fusarium spec. DAP = assay: Microbiological test; type: cell-based
Source text: as §1

[7] = test system: Pseudomonas fluorescens NCTC 4755; assay: Microbiological test; type: cell-based
Source text: as §1

[8] = test system: Polystictus versicolor EMPA61; assay: Microbiological test; type: cell-based
Source text: as §1

Lenzites abietina CBS = assay: Microbiological test; type: cell-based
Source text: as §1

[9] = test system: Staphylococcus aureus SG 511 M6; assay: Microbiological test; type: cell-based
Source text: as §1

[10] = test system: Penicillium funiculosum CEB 329631; assay: Microbiological test; type: cell-based
Source text: as §1

[11] = test system: Pasteurella multocida K753; assay: Microbiological test; type: cell-based
Source text: as §1

[12] = test system: Streptococcus agalactiae M100; assay: Microbiological test; type: cell-based
Source text: as §1

[13] = test system: Arizona paracolon 7:1.7,8; assay: Microbiological test; type: cell-based
Source text: as §1

Coniphora cerebella CBS = assay: Microbiological test; type: cell-based
Source text: as §1

Hefe DAP = assay: Microbiological test; type: cell-based
Source text: as §1

Trichophyton gypseum CBS = assay: Microbiological test; type: cell-based
Source text: as §1

[14] = test system: Bacillus subtilis NCTC 6460; assay: Microbiological test; type: cell-based
Source text: as §1

[15] = test system: Mycobacterium phlei CITM 61; assay: Microbiological test; type: cell-based
Source text: as §1

[16] = test system: Corynebacterium diphteroides FUR; assay: Microbiological test; type: cell-based
Source text: as §1

[17] = test system: Chaetomium globosum CBS 14851; assay: Microbiological test; type: cell-based
Source text: as §1

Sarcina ureae SMB 81 = assay: Microbiological test; type: cell-based
Source text: as §1

Poria vaporia CBS = assay: Microbiological test; type: cell-based
Source text: as §1

Salmonella pullorum VBIZ = assay: Microbiological test; type: cell-based
Source text: as §1

[18] = test system: Aspergillus niger ATCC 6275; assay: Microbiological test; type: cell-based
Source text: as §1

[19] = test system: Aspergillus flavus CBS 12662; assay: Microbiological test; type: cell-based
Source text: as §1

[20] = test system: Staphylococcus aureus SG 511; assay: Microbiological test; type: cell-based
Source text: as §1

[21] = test system: Trichoderma viride CEB 3334.2; assay: Microbiological test; type: cell-based
Source text: as §1

Fusarium oxysporum CBS = assay: Microbiological test; type: cell-based
Source text: as §1

[22] = test system: Pullularia pullulans CBS 10767; assay: Microbiological test; type: cell-based
Source text: as §1

[23] = test system: Salmonella gallinarum VBIB; assay: Microbiological test; type: cell-based
Source text: as §1

[24] = test system: Salmonella cholerae-suis VBIB; type: cell-based
[25] = in water / neutral medium / strongly acid or alkaline pH

| Compound | Activity range [1] [ppm] | Activity range [2] [ppm] | Activity range (Candida albicans CBS) [ppm] | Activity range (Hefe rot DAP) [ppm] | Activity range [3] [ppm] | Activity range (Pilz schwarzlich DAP) [ppm] | Activity range [4] [ppm] | Activity range [5] [ppm] | Activity range (Paecilomyces varioti CBS) [ppm] | Activity range [6] [ppm] | Activity range (Fusarium spec. DAP) [ppm] | Activity range [7] [ppm] | Activity range [8] [ppm] | Activity range (Lenzites abietina CBS) [ppm] | Activity range [9] [ppm] | Activity range [10] [ppm] | Activity range [11] [ppm] | Activity range [12] [ppm] | Activity range [13] [ppm] | Activity range (Coniphora cerebella CBS) [ppm] | other results |
| --- | --- | --- | --- | --- | --- | --- | --- | --- | --- | --- | --- | --- | --- | --- | --- | --- | --- | --- | --- | --- | --- |
| O=S(=O)([O-])CCC[S][Sn]([c]1ccccc1)([c]1ccccc1)[c]1ccccc1.[Na+] [Compound 2, sodium S-triphenyl tin-γ-mercaptopropanesulphonate] | 10 | 10 | 30 | 10 | 10 | 30 | 30 | 10 | 10 | 30 | 30 | > 300 | 30 | 100 | 10 | 100 | > 300 | 3 | > 300 | 30 | Activity range (Hefe DAP): 10 ppm; Activity range (Trichophyton gypseum CBS): 30 ppm; Activity range [14]: 3 ppm; Activity range [15]: 3 ppm; Activity range [16]: 3 ppm; Activity range [17]: 10 ppm; Activity range (Sarcina ureae SMB 81): 3 ppm; Activity range (Poria vaporia CBS): 3 ppm; Activity range (Salmonella pullorum VBIZ): > 300 ppm; Activity range [18]: 30 ppm; Activity range [19]: 30 ppm; Activity range [20]: 3 ppm; Activity range [21]: 10 ppm; Activity range (Fusarium oxysporum CBS): 10 ppm; Activity range [22]: 3 ppm; Activity range [23]: > 300 ppm; Activity range [24]: > 300 ppm |
| CCC[CH2][Sn]([CH2]CCC)([CH2]CCC)[O]S(N)(=O)=O [tributyltin sulphaminate] | – | – | – | – | – | – | – | – | – | – | – | – | – | – | – | – | – | – | – | – | stability to hydrolysis (in words) [25]: hydrolytically split off in water at once |
| S-tri-n-butyl-tin-β-mercaptopropionic acid polyethylene glycol ester [Compound 1] | 10 | 10 | 30 | 10 | 30 | 10 | 10 | 10 | 30 | 30 | 30 | 10 | 100 | 10 | 10 | 30 | 10 | 3 | > 300 | 10 | Activity range (Hefe DAP): 10 ppm; Activity range (Trichophyton gypseum CBS): 30 ppm; Activity range [14]: 10 ppm; Activity range [15]: 3 ppm; Activity range [16]: 10 ppm; Activity range [17]: 10 ppm; Activity range (Sarcina ureae SMB 81): 10 ppm; Activity range (Poria vaporia CBS): 100 ppm; Activity range (Salmonella pullorum VBIZ): > 300 ppm; Activity range [18]: 30 ppm; Activity range [19]: 30 ppm; Activity range [20]: 10 ppm; Activity range [21]: 100 ppm; Activity range (Fusarium oxysporum CBS): 30 ppm; Activity range [22]: 10 ppm; Activity range [23]: > 300 ppm; Activity range [24]: > 300 ppm |
